The target of one assay is Recombinant ROCK1 (Homo sapiens (Human), UniProt Q13464). Kind of assay: Lance Ultra Kinase Assay, ROCK1 inhibition. The class given is biochemical. Conditions: ATP at Km, 30 min pre-incubation, 1 h reaction.
The target of another assay is Recombinant ROCK2 (Homo sapiens (Human), UniProt O75116). Briefly: Lance Ultra Kinase Assay, ROCK2 inhibition. The class given is biochemical. The note with it: ATP at Km, 30 min pre-incubation, 1 h reaction.
Recombinant ROCK2, sequence (O75116 whole entry): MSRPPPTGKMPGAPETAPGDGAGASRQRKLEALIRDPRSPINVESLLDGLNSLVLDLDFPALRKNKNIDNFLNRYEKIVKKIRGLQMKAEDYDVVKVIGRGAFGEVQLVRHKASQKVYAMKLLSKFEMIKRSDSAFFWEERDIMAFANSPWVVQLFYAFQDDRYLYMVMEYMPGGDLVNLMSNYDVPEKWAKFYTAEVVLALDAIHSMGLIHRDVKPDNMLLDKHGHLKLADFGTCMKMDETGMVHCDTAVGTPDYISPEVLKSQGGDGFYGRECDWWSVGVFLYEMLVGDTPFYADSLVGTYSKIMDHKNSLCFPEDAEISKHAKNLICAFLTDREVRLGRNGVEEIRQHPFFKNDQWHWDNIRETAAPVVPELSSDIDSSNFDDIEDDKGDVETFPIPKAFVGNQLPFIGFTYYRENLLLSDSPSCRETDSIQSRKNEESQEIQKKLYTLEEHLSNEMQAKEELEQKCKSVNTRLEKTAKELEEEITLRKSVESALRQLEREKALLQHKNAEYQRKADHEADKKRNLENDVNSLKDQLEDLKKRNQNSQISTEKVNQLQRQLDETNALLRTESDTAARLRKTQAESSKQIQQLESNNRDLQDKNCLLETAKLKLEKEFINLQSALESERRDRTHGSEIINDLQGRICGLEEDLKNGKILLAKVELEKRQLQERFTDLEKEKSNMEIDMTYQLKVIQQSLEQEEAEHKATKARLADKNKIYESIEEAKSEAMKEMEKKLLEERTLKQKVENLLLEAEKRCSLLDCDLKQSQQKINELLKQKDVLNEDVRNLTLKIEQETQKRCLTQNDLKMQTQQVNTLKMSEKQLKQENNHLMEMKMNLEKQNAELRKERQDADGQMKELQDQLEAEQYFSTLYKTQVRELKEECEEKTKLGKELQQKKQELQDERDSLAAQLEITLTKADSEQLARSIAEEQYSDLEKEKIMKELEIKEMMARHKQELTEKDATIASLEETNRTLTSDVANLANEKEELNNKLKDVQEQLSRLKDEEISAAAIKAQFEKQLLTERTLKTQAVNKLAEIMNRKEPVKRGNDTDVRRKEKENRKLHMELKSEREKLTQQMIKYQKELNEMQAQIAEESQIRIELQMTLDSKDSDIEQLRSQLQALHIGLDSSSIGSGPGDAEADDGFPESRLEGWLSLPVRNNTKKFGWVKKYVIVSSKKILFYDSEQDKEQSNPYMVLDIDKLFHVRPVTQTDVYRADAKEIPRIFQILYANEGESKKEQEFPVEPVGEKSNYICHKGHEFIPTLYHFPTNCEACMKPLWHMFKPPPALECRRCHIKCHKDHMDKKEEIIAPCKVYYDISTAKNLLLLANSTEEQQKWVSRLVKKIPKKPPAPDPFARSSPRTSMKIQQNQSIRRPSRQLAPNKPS

Recombinant ROCK1, sequence (Q13464 whole entry): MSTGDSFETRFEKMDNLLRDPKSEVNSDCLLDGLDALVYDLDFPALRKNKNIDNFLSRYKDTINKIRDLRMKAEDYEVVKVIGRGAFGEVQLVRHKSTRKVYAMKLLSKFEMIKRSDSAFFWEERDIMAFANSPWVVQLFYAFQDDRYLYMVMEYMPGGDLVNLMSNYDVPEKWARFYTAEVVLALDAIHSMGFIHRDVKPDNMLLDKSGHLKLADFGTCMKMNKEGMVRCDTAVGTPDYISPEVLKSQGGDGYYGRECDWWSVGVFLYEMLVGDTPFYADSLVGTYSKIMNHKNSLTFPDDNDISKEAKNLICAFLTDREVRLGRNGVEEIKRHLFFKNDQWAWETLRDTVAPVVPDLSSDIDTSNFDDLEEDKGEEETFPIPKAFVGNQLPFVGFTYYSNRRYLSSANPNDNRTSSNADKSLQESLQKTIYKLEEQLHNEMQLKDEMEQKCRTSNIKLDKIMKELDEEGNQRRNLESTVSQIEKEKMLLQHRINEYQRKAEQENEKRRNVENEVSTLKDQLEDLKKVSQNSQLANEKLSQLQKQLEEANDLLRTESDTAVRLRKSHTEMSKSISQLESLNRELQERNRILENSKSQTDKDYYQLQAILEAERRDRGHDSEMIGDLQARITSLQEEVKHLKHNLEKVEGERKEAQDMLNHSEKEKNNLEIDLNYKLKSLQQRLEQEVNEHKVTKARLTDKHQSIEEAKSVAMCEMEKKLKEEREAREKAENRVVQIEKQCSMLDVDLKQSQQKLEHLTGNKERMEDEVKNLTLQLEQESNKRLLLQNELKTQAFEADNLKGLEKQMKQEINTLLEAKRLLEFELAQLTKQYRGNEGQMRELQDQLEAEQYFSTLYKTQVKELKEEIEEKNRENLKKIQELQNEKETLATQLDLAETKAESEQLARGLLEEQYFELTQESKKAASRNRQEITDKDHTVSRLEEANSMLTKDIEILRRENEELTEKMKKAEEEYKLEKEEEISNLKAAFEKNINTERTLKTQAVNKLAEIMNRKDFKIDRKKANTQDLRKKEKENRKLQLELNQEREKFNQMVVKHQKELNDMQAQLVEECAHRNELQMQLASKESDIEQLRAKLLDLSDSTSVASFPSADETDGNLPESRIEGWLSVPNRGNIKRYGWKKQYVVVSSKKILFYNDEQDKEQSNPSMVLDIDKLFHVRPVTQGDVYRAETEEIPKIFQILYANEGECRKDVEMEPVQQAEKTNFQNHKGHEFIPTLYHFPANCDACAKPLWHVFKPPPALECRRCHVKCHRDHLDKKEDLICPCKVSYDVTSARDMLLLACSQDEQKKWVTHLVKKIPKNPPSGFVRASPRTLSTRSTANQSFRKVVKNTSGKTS
Method for Recombinant ROCK1: The inhibition potency of compounds against these enzymes was assessed using Lance Ultra Kinase Assay. In brief, recombinant kinases were pre-incubated in the presence or absence of compound at room temperature for 30 minutes. The reaction was initiated by the addition of the ATP (Km) and substrate peptide which could be phosphorylated by kinases in the reaction. After 1 h incubation, the reaction was stopped by the addition of the detection reagent mix containing EDTA. The fluorescence was measured at 615 nm and 665 nm, respectively with excitation wavelength at 320 nm. The calculated signal ratio of 665 nm/615 nm is proportional to the kinase activity.

For the molecule `NCC(C(=O)Nc1cccc2c(-c3cn[nH]c3)c[nH]c12)c1cccc(O)c1` (single isomer, unassigned) [Example 65, N-(3-(1H-pyrazol-4-yl)-1H-indol-7-yl)-3-amino-2-(3-hydroxyphenyl)propanamide], the IC50 (as a rule, the concentration that inhibits the measured activity by half) at Recombinant ROCK1 was determined as 4.4 nM; at Recombinant ROCK2, 2.5 nM.

Consider `CN1CCN(CC(C(=O)Nc2cccc3c(-c4cn[nH]c4)c[nH]c23)c2cccnc2)CC1` (single isomer, unassigned) [Example 66, N-(3-(1H-pyrazol-4-yl)-1H-indol-7-yl)-3-(4-methylpiperazin-1-yl)-2-(pyridin-3-yl)propanamide], for which the concentration for half-maximal inhibition (IC50) on Recombinant ROCK1 turned out to be 604 nM; at Recombinant ROCK2 it was 310 nM.

For `CN1CCN(CC(C(=O)Nc2cccc3c(-c4cn[nH]c4)c[nH]c23)c2cccnc2)CC1` (single isomer, unassigned) [Example 67, N-(3-(1H-pyrazol-4-yl)-1H-indol-7-yl)-3-(4-methylpiperazin-1-yl)-2-(pyridin-3-yl)propanamide], the IC50 on Recombinant ROCK1 stood at 2.6 nM; at Recombinant ROCK2, 1.6 nM.

On to `N#Cc1cccc([C@@H](N)C(=O)Nc2cccc3c(-c4cn[nH]c4)c[nH]c23)c1` (single isomer, unassigned) [Example 68, N-(3-(1H-pyrazol-4-yl)-1H-indol-7-yl)-2-amino-2-(3-cyanophenyl) acetamide], for which the IC50 on Recombinant ROCK1 came out at 4 nM; at Recombinant ROCK2, 1.5 nM.

Take `N#Cc1cccc([C@H](N)C(=O)Nc2cccc3c(-c4cn[nH]c4)c[nH]c23)c1` (single isomer, unassigned) [Example 69, N-(3-(1H-pyrazol-4-yl)-1H-indol-7-yl)-2-amino-2-(3-cyanophenyl) acetamide]: the IC50 was 21 nM on Recombinant ROCK1 and 9.2 nM at Recombinant ROCK2.

For the molecule `COc1cncc(C(CN2CCN(C)CC2)C(=O)Nc2cccc3c(-c4cn[nH]c4)c[nH]c23)c1` (single isomer, unassigned) [Example 110, N-(3-(1H-pyrazol-4-yl)-1H-indol-7-yl)-2-(5-methoxypyridin-3-yl)-3-(4-methylpiperazin-1-yl)propanamide], the IC50 was determined as 6.6 nM at Recombinant ROCK1 and 3.3 nM at Recombinant ROCK2.

On to `COc1cncc(C(CN2CCN(C)CC2)C(=O)Nc2cccc3c(-c4cn[nH]c4)c[nH]c23)c1` (single isomer, unassigned) [Example 111, N-(3-(1H-pyrazol-4-yl)-1H-indol-7-yl)-2-(5-methoxypyridin-3-yl)-3-(4-methylpiperazin-1-yl)propanamide], for which the concentration for half-maximal inhibition (IC50) at Recombinant ROCK1 stood at 297 nM; on Recombinant ROCK2 it was 167 nM.

`NCC(C(=O)Nc1cccc2c(-c3cn[nH]c3)c[nH]c12)c1ccc(C(N)=O)cc1` (single isomer, unassigned) [Example 112, 4-(1-((3-(1H-pyrazol-4-yl)-1H-indol-7-yl)amino)-3-amino-1-oxopropan-2-yl)benzamide]: the concentration for half-maximal inhibition (IC50) at Recombinant ROCK1 is 1.3 nM; at Recombinant ROCK2, 0.47 nM.

`NCC(C(=O)Nc1cccc2c(-c3cn[nH]c3)c[nH]c12)c1ccc(C(N)=O)cc1` (single isomer, unassigned) [Example 113, 4-(1-((3-(1H-pyrazol-4-yl)-1H-indol-7-yl)amino)-3-amino-1-oxopropan-2-yl)benzamide]: the concentration for half-maximal inhibition (IC50) stood at 110 nM at Recombinant ROCK1 and 43 nM at Recombinant ROCK2.

Take `N[C@@H](C(=O)Nc1cccc2c(-c3cn[nH]c3)c[nH]c12)c1cccnc1` (single isomer, unassigned) [Example 131, N-(3-(1H-pyrazol-4-yl)-1H-indol-7-yl)-2-amino-2-(pyridin-3-yl) acetamide]: the IC50 on Recombinant ROCK1 came out at 22 nM; on Recombinant ROCK2, 12 nM.

Take `N[C@H](C(=O)Nc1cccc2c(-c3cn[nH]c3)c[nH]c12)c1cccnc1` (single isomer, unassigned) [Example 132, N-(3-(1H-pyrazol-4-yl)-1H-indol-7-yl)-2-amino-2-(pyridin-3-yl) acetamide]: the IC50 at Recombinant ROCK1 stood at 0.76 nM; on Recombinant ROCK2, 0.39 nM.

In the case of `COc1cccc(C(CN2CCN(C)CC2)NC(=O)c2cccc3c(-c4cn[nH]c4)c[nH]c23)c1` (single isomer, unassigned) [Example 137, N-(1-(3-methoxyphenyl)-2-(4-methylpiperazin-1-yl)ethyl)-3-(1H-pyrazol-4-yl)-1H-indole-7-carboxamide], the IC50 was 149 nM at Recombinant ROCK1 and 65 nM on Recombinant ROCK2.

Take `COc1cccc(C(CN2CCN(C)CC2)NC(=O)c2cccc3c(-c4cn[nH]c4)c[nH]c23)c1` (single isomer, unassigned) [Example 138, N-(1-(3-methoxyphenyl)-2-(4-methylpiperazin-1-yl)ethyl)-3-(1H-pyrazol-4-yl)-1H-indole-7-carboxamide]: the figures for the IC50 on Recombinant ROCK1 and on Recombinant ROCK2 were 73 nM and 23 nM, respectively.

On to `COc1cccc(C(CN)NC(=O)c2cccc3c(-c4cn[nH]c4)c[nH]c23)c1` (single isomer, unassigned) [Example 139, N-(2-amino-1-(3-methoxyphenyl)ethyl)-3-(1H-pyrazol-4-yl)-1H-indole-7-carboxamide], for which the IC50 on Recombinant ROCK1 stood at 5.5 nM; at Recombinant ROCK2 it was 3.1 nM.

Regarding `COc1cccc(C(NC(=O)c2cccc3c(-c4cn[nH]c4)c[nH]c23)C2CCN(C)CC2)c1` (single isomer, unassigned) [Example 141, N-((3-methoxyphenyl) (1-methylpiperidin-4-yl)methyl)-3-(1H-pyrazol-4-yl)-1H-indole-7-carboxamide], the IC50 is 331 nM on Recombinant ROCK1 and 163 nM on Recombinant ROCK2.

With `COc1cccc(C(NC(=O)c2cccc3c(-c4cn[nH]c4)c[nH]c23)C2CCN(C)CC2)c1` (single isomer, unassigned) [Example 142, N-((3-methoxyphenyl) (1-methylpiperidin-4-yl)methyl)-3-(1H-pyrazol-4-yl)-1H-indole-7-carboxamide], the IC50 at Recombinant ROCK1 turned out to be 113 nM; at Recombinant ROCK2, 37 nM.

For the molecule `COc1ccc(C(CN)NC(=O)c2cccc3c(-c4cn[nH]c4)c[nH]c23)cc1` (single isomer, unassigned) [Example 144, N-(2-amino-1-(4-methoxyphenyl)ethyl)-3-(1H-pyrazol-4-yl)-1H-indole-7-carboxamide], the IC50 turned out to be 60 nM on Recombinant ROCK1 and 32 nM at Recombinant ROCK2.

As to `COc1ccc(C(CN)NC(=O)c2cccc3c(-c4cn[nH]c4)c[nH]c23)cc1` (single isomer, unassigned) [Example 145, N-(2-amino-1-(4-methoxyphenyl)ethyl)-3-(1H-pyrazol-4-yl)-1H-indole-7-carboxamide], the IC50 at Recombinant ROCK1 is 46 nM; at Recombinant ROCK2, 20 nM.

Consider `CN1CCN(C[C@@H](C(=O)Nc2cccc3c(-c4cn[nH]c4)c[nH]c23)c2ccccc2)CC1` [Example 40], for which the half-inhibitory concentration (IC50) on Recombinant ROCK1 was 0.33 nM; on Recombinant ROCK2 it was 0.18 nM.

Consider `COc1cccc([C@H](N)C(=O)Nc2cccc3c(-c4cn[nH]c4)c[nH]c23)c1` [Example 41, (2S)-2-amino-2-(3-methoxyphenyl)-N-[3-(1H-pyrazol-4-yl)-1H-indol-7-yl]acetamide], for which the IC50 at Recombinant ROCK1 is 5.4 nM; on Recombinant ROCK2 it was 3.5 nM.

With `NC[C@@H](Cc1ccccc1)C(=O)Nc1cccc2c(-c3cn[nH]c3)c[nH]c12` [Example 53, (2R)-3-amino-2-benzyl-N-[3-(1H-pyrazol-4-yl)-1H-indol-7-yl]propanamide], the results for the IC50 at Recombinant ROCK1 and on Recombinant ROCK2 were 5.8 nM and 4.1 nM, respectively.

Values taken from US20250346616A1 (DIZAL (JIANGSU) PHARMACEUTICAL CO., LTD., priority 2022, published 2025).
